Test results published in patent US20140206534A1, “FORMULATION” (SYNGENTA LIMITED, priority 2011, published 2014).

Tests used:
[1] = Visual release rate test of Bitrex in water; type: physicochemical; details: after 15 minutes; 0.4 mg agitated in 10 ml water
Method: 0.4 mg of sample was agitated in 10 ml of water and observed over 8 hours.

[2] = UV/Vis release rate measurement of Bitrex in water; type: physicochemical; details: 100 mg in 40 ml water, shaken
Method: 2 ml of the mixture was removed at each time interval for analysis.

## CC[N+](CC)(CC(=O)Nc1c(C)cccc1C)Cc1ccccc1 [Uncoated Bitrex, Denatonium benzoate]
[1]
  visual observation of dissolution: fully dissolved
[2]; 5 minutes
  % release of Bitrex relative to the total content: 99.6%
[2]; 15 minutes
  % release of Bitrex relative to the total content: 99.8%
